Test results as given in patent US4472397A, “Use of certain 1-substituted-triazolo-benzodiazepines to treat psychoses” (priority 1983, dated 1984).
“Also recorded” adds a separate entry of the source. Where two headings read alike, the source gives them in different places.

Legend:
[1] = tested on: ^3 H-Spiroperidol binding; assay: animal or person; assay type: in vivo, Male ICR mice; details: for activity at 50 mg/kg: Mus musculus, sc, read-out: In vivo ^3 H-Spiroperidol % of Control
Experimental: The following representative compounds were tested in an in vivo mouse ^3 H-Spiroperidol binding test.
The test procedure was as follows:
Male ICR mice weighing 20-22 g were used.
The animals were dosed with the ^3 H-Spiroperidol solution at 66 micro-Curie/kg in 0.2 ml, by the subcutaneous route. The animals were sacrificed 2 hours later and sections of the brains of the mice were removed with striata and septum and some adjacent cortex. The tissues were weighed after freezing on dry ice and dissolved in 1 ml of Protosol overnight at 35° C. The Protosol was neutralized with 80 μl of 6N hydrochloric acid and 15 ml of ACS scintillation fluid was added. All samples were then counted in a liquid scintillation counter.
A background of 25 counts per minute (CPM) was subtracted from the counts for each sample counted. The CPM/mg of the tissue was calculated and a statistical t test was used to test the significance of the value.

[2] = tested on: psychotic, including schizophrenic, disorders; assay: Clinical trials in human patients with psychotic, including schizophrenic, disorders (Example 3); assay type: in vivo
Experimental: Clinical trials with the lead compound, adinazolam, in the treatment of human patients for psychotic, including schizophrenic, disorders in the absence of depression are in progress. […] Patients are being maintained on dosages of from 2.5 to 20 mg. of adinazolam qid (four times a day).
In one patient extrapyramidal side effects persisting from previous medication disappeared with adinazolam therapy.

[3] = tested on: intractable psychosis or schizoaffective illnesses; assay: Preliminary clinical trials in human patients with intractable psychosis or schizoaffective illnesses; assay type: in vivo; details: small, but effective and safe dosage amounts
schizoaffective patient = assay: Treatment of a human schizoaffective patient with adinazolam (Example 2); assay type: in vivo; details: 5 mg bid first day, 5 mg tid second day; over two days; one patient refractory to tricyclic antidepressant and stelazine
Experimental: In a human patient, adinazolam was given for two days at a dosage of 5 mg bid (twice a day) the first day and 5 mg tid (three times a day) the second day to a human schizoaffective patient suffering moodcongruent delusions and persecutory auditory hallucinations which had been refractory to four months of therapy with a tricyclic antidepressant and stelazine. The clinician serving the patient found a remarkable approximately fifty percent (50%) improvement in the patient's condition over the two days of treatment with adinazolam.

serum prolactin = assay: Serum prolactin levels in open-label depression studies; assay type: in vivo, human
Description: (Three of the patients had been treated recently with a phenothiazine or amoxapine).

acute psychosis = details: cited from earlier work
[4] = Dose 50 mg/kg, subcutaneous, one hour before ^3 H-Spiroperidol, sacrificed 2 hours later

**Q.** For `CCN1CCN(c2nnc3n2-c2ccccc2C(c2ccccc2Cl)=NC3)CC1` [Compound 7, 1-(4-ethyl-1-piperazinyl)-6-(2-chlorophenyl)-4H--s-triazolo[4,3][1,4]benzodiazepine], which activity at 50 mg/kg [1, 4] is on record?
**A.** 72%

**Q.** Which “In vivo ^3 H-Spiroperidol % of Control” value [1, 4] does the source give for `CC1NC(c2ccccc2)c2cc(Cl)ccc2-n2c1nnc2N1CCN(C)CC1` (stereo not shown) [Compound 5, 8-chloro-1-(4-methyl-1-piperazinyl)-4-methyl-5,6-dihydro-6-phenyl-4H--s-triazolo[4,3-a][1,4]benzodiazepine] here?
**A.** 89%

**Q.** With `CN1CCN(c2nnc3n2-c2ccccc2C(c2ccccc2)=NC3)CC1` [Compound 4, 1-(4-methyl-1-piperazinyl)-6-phenyl-4H--s-triazolo[4,3-a][1,4]benzodiazepine] as the compound, how does the activity at 50 mg/kg [1, 4] read?
**A.** 59%

**Q.** Which activity at 50 mg/kg [1, 4] does the source give for `CN(C)CCc1nnc2n1-c1ccc(Cl)cc1C(c1ccccc1)=NC2` [Compound 3, 8-chloro-1-[2-(dimethylamino)ethyl]-6-phenyl-4H--s-triazolo[4,3-a][1,4]benzodiazepine] here?
**A.** 78%

**Q.** Which results are given for `CN1CCN(c2nnc3n2-c2ccc(Cl)cc2C(c2ccccc2)=NC3)CC1` [Compound 2, 8-chloro-1-(4-methyl-1-piperazinyl)-6-phenyl-4H--s-triazolo[4,3-a][1,4]benzodiazepine]?
**A.** In vivo ^3 H-Spiroperidol % of Control ([1]; Dose 50 mg/kg, subcutaneous, one hour before ^3 H-Spiroperidol, sacrificed 2 hours later, 50 mg/kg): 73%; activity at 50 mg/kg [1, 4]: 69%

**Q.** With `CN1CCN(c2nnc3n2-c2ccccc2C(c2ccccc2Cl)=NC3)CC1` [Compound 6, 1-(4-methyl-1-piperazinyl)-6-(2-chlorophenyl)-4H--s-triazolo[4,3-a][1,4]benzodiazepine] as the compound, how does the activity at 50 mg/kg [1, 4] read?
**A.** 65%

**Q.** With `CN(C)Cc1nnc2n1-c1ccc(Cl)cc1C(c1ccccc1)=NC2` [Compound 1, 8-chloro-1-[(dimethylamino)methyl]-6-phenyl-4H--s-triazolo[4,3-a][1,4]-benzodiazepine] as the compound, how does the improvement of patients ([2]; five patients, 2.5 to 20 mg qid, absence of depression) read?
**A.** all experienced moderate or marked improvement

**Q.** What about the “extrapyramidal side effects persisting from previous medication” value ([2]; one patient) of the same compound?
**A.** disappeared

**Q.** What about the “effect of unintentional withdrawal of medication” value ([2]; one patient, medication withdrawn for 24 hours) of the same compound?
**A.** reverted to a psychotic condition

**Q.** What about the “effect of reinitiated therapy” value ([2]; one patient, reinitiated in the morning after 24 hour withdrawal, that same day) of the same compound?
**A.** became lucid again that same day

**Q.** What about the activity at 50 mg/kg [1] of the same compound?
**A.** 82%

**Q.** And the “Activity in the ^3 H-Spiroperidol binding test (in words)” value ([1]; animals, in vivo, listed as adinazolam)?
**A.** active; also recorded: weak but suggested antipsychotic-like activity

**Q.** What about the “symptoms of schizophrenia and affective improvement” value [3] of the same compound?
**A.** improved symptoms of schizophrenia and affective improvement

**Q.** And the “improvement in the patient's condition” value (schizoaffective patient)?
**A.** ~50%

**Q.** And the “prolactin levels in patients with elevated prolactin at introductory screening” value (serum prolactin; four patients (2 males; 2 females), three recently treated with a phenothiazine or amoxapine)?
**A.** the prolactin levels in all four patients normalized

**Q.** And the “effect on serum prolactin levels” value (serum prolactin; open-label depression studies)?
**A.** no apparent elevating effect on serum prolactin levels

**Q.** Which results are given for `CN1C(=O)CN=C(c2ccccc2)c2cc(Cl)ccc21` [diazepam]?
**A.** effectiveness versus haloperidol in acute psychosis (acute psychosis; over 24 hours of treatment): at least as effective as haloperidol; sedation effects (acute psychosis; treatment of acute psychosis): marked sedation effects
